Measurements: patent US10668039B2, “Methods for treatment of adenoid cystic carcinoma” (THE CHILDREN'S MEDICAL CENTER CORPORATION, priority 2016, dated 2020)
Entries after “also recorded” stand apart in the source; their conditions may differ.

Key:
[1] = patients, 45 mg/m2 oral dose of ATRA, first day of treatment; cited from earlier work
MYB = experiment: RNA-seq of short-term ACC x9 primagrafts, MYB; type: in vivo, human; details: 3 days, n=3, p<0.05
From the text: (§1) Primagraft experiments: For in vivo drug testing, ACC tumor fragments from host animals were implanted subcutaneously into the flank of nude mice (CRL: ATH/NU). Once tumors reached 125-250 mm3, mice were randomized to receive vehicle or drug diluted in 10:90 DMSO:10% hydroxypropyl-beta-cyclodextrin orally until controls reached a tumor volume endpoint of 1-2 cm3 (4-9 mice per group: x5M1 and x6, 4 treated vs. 9 vehicle controls; x9, 4 treated vs. 5 vehicle controls; x11, 5 treated vs. 8 vehicle controls). Mice were treated with ATRA (ACC x6 and x11: 4 mg/mL, 0.2 mL flat dose; ACC×9: 3 mg/mL, 0.2 mL flat dose) or isotretinoin (30 mg/mL, 0.2 mL flat dose). Tumor growth was monitored and mice weighed twice weekly and studies ended when final group reached tumor volume endpoint. No statistical methods were employed to determine the sample size, and no blinding of investigators was performed. After long-term tumor growth inhibition studies were completed, the ATRA treated mice stopped receiving treatment and were maintained longer as indicated to monitor tumor maintenance after treatment cessation. For long-term tumor growth inhibition studies, ACC x6, x9, and x11 models were used and primagrafts collected at the completion of the study. Short-term kinetics studies were also undertaken with ACC x9 and x5M1 primagrafts involving 3 day ATRA treatments. […]

c-myb = experiment: In situ hybridization of whole embryos, c-myb; type: in vivo, zebrafish; details: 10 μM, treated 48-72 hpf, fixed at 72 hpf
Method: In situ hybridization: In situ hybridization was done for c-myb as described in North (2007). Wildtype AB zebrafish embryos were treated with RAs in the E3 water at the indicated doses during 48-72 hpf, after which point they were fixed in 4% PFA. Qualitative scoring (number of embryos with altered number of HSCs scored) of c-myb positive cells was conducted by assessing the caudal hematopoietic tissue (CHT) region by the tail.
(§2) In situ hybridization: Wildtype AB embryos from the same clutch were treated between 48-72 hpf with 10 μM retinoic acid agonists diluted in E3, fixed at 72 hpf in 4% paraformaldehyde, and processed as previously described. CHT staining in the embryos was blindly scored as high, medium, or low, and summed across 3 independent experiments as done previously. Representative images were acquired on a Nikon ZMS 18 microscope.

cleaved caspase-3 = experiment: Immunohistochemistry of ACC primagrafts, cleaved caspase-3; type: in vivo, nude mice; details: ACC x6, x9, x11 primagrafts at conclusion of long-term studies
From the text: as §1, with “performed.” for “performed. After long-term tumor growth inhibition studies were completed, the ATRA treated mice stopped receiving treatment and were maintained longer as indicated to monitor tumor maintenance after treatment cessation. For long-term tumor growth inhibition studies, ACC x6, x9, and x11 models were used and primagrafts collected at the completion of the study. Short-term kinetics studies were also undertaken with ACC x9 and x5M1 primagrafts involving 3 day ATRA treatments.”
(§3) Immunohistochemistry: Sectioning and staining was carried out by the Dana-Farber/Harvard Cancer Center Specialized Histopathology Core using standard procedures on ACC x6, x9, and x11 samples (from long-term tumor growth inhibition studies). […] Primary antibody was detected using Bond Polymer Refine Detection kit. […] Images (>200 nuclei each) from three different individual primagrafts were blindly quantitated.

RARA and RARG = experiment: RNA-seq of short-term ACC x9 primagrafts, RARA and RARG; type: in vivo, human; details: 3 days, n=3, p<0.05
From the text: as §1

Ki-67 = experiment: Immunohistochemistry of ACC primagrafts, Ki-67; type: in vivo, nude mice; details: ACC x6, x9, x11 primagrafts at conclusion of long-term studies
From the text: as §1, with “performed.” for “performed. After long-term tumor growth inhibition studies were completed, the ATRA treated mice stopped receiving treatment and were maintained longer as indicated to monitor tumor maintenance after treatment cessation. For long-term tumor growth inhibition studies, ACC x6, x9, and x11 models were used and primagrafts collected at the completion of the study. Short-term kinetics studies were also undertaken with ACC x9 and x5M1 primagrafts involving 3 day ATRA treatments.”
as §3

U937 cells = experiment: U937 proliferation, CellTiter-Glo; type: cell-based, human; details: 2 days (48 hours) of treatment, dose response
Method: Cell culture: U937 cells were grown in RPMI 1640 (Life Technologies), 10% heat inactivated FBS, and 1% Penicillin-Streptomycin (Invitrogen). CellTiter-Glo Luminescent Cell Viability Assay (Promega) was performed as per manufacturer's instructions. Cell viability was assessed at day 2.
Proliferation assays: U937 cells (ATCC) were grown in RPMI 1640 medium (Gibco) supplemented with 10% FBS and 1% Penicillin-Streptomycin (Gibco) and cultured in a 37° C. incubator with 5% CO2. U937 cells are listed in the database of commonly misidentified cell lines maintained by ICLAC, but authentic stocks are available and certified by ATCC based on DNA short-tandem repeat analysis. […] U937 cells were tested every other week for mycoplasma contamination using the MycoAlert Mycoplasma Detection Kit (Lonza) and consistently confirmed to be negative. Cells were seeded at an initial density of 1,150 cells/well (96 well plate) with chemicals at the concentrations indicated. After 48 hours, cell proliferation rates were determined using CellTiter-Glo (Promega) luminescent cell viability assay as per the manufacturer's instructions.

ACC PDX models = experiment: ATRA comparison TGI studies in ACC PDX models; type: in vivo; details: ATRA 8 mg/kg to 32 mg/kg; tamibarotene 2 mg/kg
Method: The TGI studies in ACC PDX models were repeated in order to compare the original ATRA dose (3 or 4 mg/ml) against a more physiologically relevant dose of ATRA (8 mg/kg) and an alternative retinoid Tamibarotene (originally developed for ATRA-resistant cancer settings, approved in Japan and currently in development at Syros Pharmaceuticals).

[2] = tested on: human salivary adenoid cystic carcinoma cell; details: Chen et al. 1998; cell line said not to be bona fide ACC; cited from earlier work
1-plastin = experiment: In situ hybridization of whole embryos, 1-plastin; type: in vivo, zebrafish; details: 10 μM, treated 48-72 hpf, fixed at 72 hpf
Method: as §2

runx1 = experiment: In situ hybridization of whole embryos, runx1; type: in vivo, zebrafish; details: 10 μM, treated 48-72 hpf, fixed at 72 hpf
Method: as §2

Question: With `CC(C=CC1=C(C)CCCC1(C)C)=CC=C/C(C)=C/C(=O)O` [ATRA, (E)-3,7-dimethyl-9-(2,6,6-trimethyl-1-cyclo-hexen-1-yl)-2,4,6,8-nonatetraenoic acid] as the molecule, how does the median plasma concentration [1] read?
Answer: approximately 1 μM

Question: What about the “decrease of MYB levels” value (MYB) of the same molecule?
Answer: ~20%

Question: What about the “c-myb expression (staining) in the CHT” value (c-myb) of the same molecule?
Answer: significant decrease; also recorded: decreased staining

Question: What about the “cell death (cleaved caspase-3 positive nuclei)” value (cleaved caspase-3) of the same molecule?
Answer: induced more cell death

Question: And the “increase of RARA and RARG gene levels” value (RARA and RARG)?
Answer: ~40%

Question: What about the “proliferation (Ki-67 positive nuclei)” value (Ki-67) of the same molecule?
Answer: no significant effect

Question: What about the “U937 proliferation (CellTiter-Glo)” value (U937 cells) of the same molecule?
Answer: inhibited

Question: And the “tumor growth inhibition in the PDX studies” value (ACC PDX models)?
Answer: showed tumor growth inhibition

Question: What about the “effect on cell proliferation in vitro” value [2] of the same molecule?
Answer: anti-proliferative effects

Question: What about the “1-plastin expression (staining) in the CHT” value (1-plastin) of the same molecule?
Answer: no significant difference; also recorded: did not decrease staining

Question: What about the “runx1 expression (staining) in the CHT” value (runx1) of the same molecule?
Answer: significant decrease; also recorded: decreased staining
